Experiments:
[1] = system: Echinochloa oryzoides (Ard.) Fritsch.; test: Preemergence weed control under flooded paddy conditions, ECHORC (Watergrass (Calif.)); type: in vivo; settings: preemergence weeds, flooded paddy, herbicidal effect rating 0-9, three to four weeks after treatment
[2] = system: Sagittaria pygmaea, L.; test: Preemergence weed control under flooded paddy conditions, SAGPY (Arrowhead (Pygmaea)); type: in vivo; settings: preemergence weeds, flooded paddy, herbicidal effect rating 0-9, three to four weeks after treatment
[3] = system: Monochoria vaginalis, Presl.; test: Preemergence weed control under flooded paddy conditions, MOOVA (Monochoria); type: in vivo; settings: preemergence weeds, flooded paddy, herbicidal effect rating 0-9, three to four weeks after treatment
[4] = system: Echinochloa oryzoides (Ard.) Fritsch.; test: Postemergence weed control under flooded paddy conditions, ECHORC (Watergrass (Calif.)); type: in vivo; settings: rated three to four weeks after treatment
[5] = system: Monochoria vaginalis, Presl.; test: Postemergence weed control under flooded paddy conditions, MOOVA (Monochoria); type: in vivo; settings: rated three to four weeks after treatment
[6] = system: Oryza sativa, (L.) Tebonnet; test: Rice tolerance to post-transplant applications under flooded paddy conditions (Example 188), ORYSAT (Rice, Tebonnet); settings: rated three to four weeks after treatment
[7] = system: Cyperus serotinus, Rottb.; test: Postemergence weed control under flooded paddy conditions, CYPSE (Flatsedge); type: in vivo; settings: rated three to four weeks after treatment
[8] = system: Cyperus iria; test: Postemergence weed control under flooded paddy conditions, CYPIR (Rice Flatsedge); type: in vivo; settings: rated three to four weeks after treatment
[9] = system: Cyperus iria; test: Preemergence weed control under flooded paddy conditions, CYPIR (Rice Flatsedge); type: in vivo; settings: preemergence weeds, flooded paddy, herbicidal effect rating 0-9, three to four weeks after treatment
[10] = system: Oryza sativa, (L.) Tebonnet; test: Rice tolerance to post-transplant applications under flooded paddy conditions (Example 187), ORYSAT (Rice, Tebonnet); settings: herbicidal effect rating 0-9, three to four weeks after treatment
[11] = system: Cyperus serotinus, Rottb.; test: Preemergence weed control under flooded paddy conditions, CYPSE (Flatsedge); type: in vivo; settings: preemergence weeds, herbicidal effect rating 0-9, three to four weeks after treatment
[12] = system: Sagittaria pygmaea, L.; test: Postemergence weed control under flooded paddy conditions, SAGPY (Arrowhead (Pygmaea)); type: in vivo; settings: rated three to four weeks after treatment

COc1cc(C)c(I)cc1-c1nsc2ccc(-n3c(=O)cc(C(F)(F)F)n(C)c3=O)cc12 [Example 429, 2,4(1H,3H)-Pyrimidinedione, 3-[3-(5-iodo-2-methoxy-p-tolyl)-1,2-benzisothiazol-5-yl]-1-methyl-6-(trifluoromethyl)-]
ECHORC ([1]; 0.0320 kg/ha): 9.0 | ECHORC ([1]; 0.0620 kg/ha): 9.0 | ECHORC ([1]; 0.1250 kg/ha): 9.0 | ECHORC ([1]; 0.2500 kg/ha): 9.0 | SAGPY ([2]; 0.0320 kg/ha): 2.0 | SAGPY ([2]; 0.0620 kg/ha): 2.3 | SAGPY ([2]; 0.1250 kg/ha): 2.3 | SAGPY ([2]; 0.2500 kg/ha): 3.0 | MOOVA ([3]; 0.0320 kg/ha): 9.0 | MOOVA ([3]; 0.0620 kg/ha): 9.0 | MOOVA ([3]; 0.1250 kg/ha): 9.0 | MOOVA ([3]; 0.2500 kg/ha): 9.0 | herbicidal effect rating, ECHORC ([4]; Rate 0.0320 kg/ha): 4.0 | herbicidal effect rating, ECHORC ([4]; Rate 0.0620 kg/ha): 6.0 | herbicidal effect rating, ECHORC ([4]; Rate 0.1250 kg/ha): 6.0 | herbicidal effect rating, ECHORC ([4]; Rate 0.2500 kg/ha): 9.0 | herbicidal effect rating, MOOVA ([5]; Rate 0.0320 kg/ha): 2.0 | herbicidal effect rating, MOOVA ([5]; Rate 0.0620 kg/ha): 4.0 | herbicidal effect rating, MOOVA ([5]; Rate 0.1250 kg/ha): 7.0 | herbicidal effect rating, MOOVA ([5]; Rate 0.2500 kg/ha): 7.0 | herbicidal effect rating, ORYSAT (rice tolerance) ([6]; Rate 0.0320 kg/ha): 1.0 | herbicidal effect rating, ORYSAT (rice tolerance) ([6]; Rate 0.0620 kg/ha): 1.0 | herbicidal effect rating, ORYSAT (rice tolerance) ([6]; Rate 0.1250 kg/ha): 2.0 | herbicidal effect rating, ORYSAT (rice tolerance) ([6]; Rate 0.2500 kg/ha): 2.0 | herbicidal effect rating, CYPSE ([7]; Rate 0.0320 kg/ha): 0.0 | herbicidal effect rating, CYPSE ([7]; Rate 0.0620 kg/ha): 0.0 | herbicidal effect rating, CYPSE ([7]; Rate 0.1250 kg/ha): 0.0 | herbicidal effect rating, CYPSE ([7]; Rate 0.2500 kg/ha): 0.0 | herbicidal effect rating, CYPIR ([8]; Rate 0.0320 kg/ha): 4.0 | herbicidal effect rating, CYPIR ([8]; Rate 0.0620 kg/ha): 6.0 | herbicidal effect rating, CYPIR ([8]; Rate 0.1250 kg/ha): 7.0 | herbicidal effect rating, CYPIR ([8]; Rate 0.2500 kg/ha): 9.0 | CYPIR ([9]; 0.0320 kg/ha): 7.3 | CYPIR ([9]; 0.0620 kg/ha): 7.7 | CYPIR ([9]; 0.1250 kg/ha): 8.3 | CYPIR ([9]; 0.2500 kg/ha): 9.0 | ORYSAT ([10]; 0.0320 kg/ha): 1.3 | ORYSAT ([10]; 0.0620 kg/ha): 2.0 | ORYSAT ([10]; 0.1250 kg/ha): 2.3 | ORYSAT ([10]; 0.2500 kg/ha): 3.0 | CYPSE ([11]; 0.0320 kg/ha): 0.0 | CYPSE ([11]; 0.0620 kg/ha): 1.0 | CYPSE ([11]; 0.1250 kg/ha): 1.0 | CYPSE ([11]; 0.2500 kg/ha): 1.0 | herbicidal effect rating, SAGPY ([12]; Rate 0.0320 kg/ha): 0.0 | herbicidal effect rating, SAGPY ([12]; Rate 0.0620 kg/ha): 0.0 | herbicidal effect rating, SAGPY ([12]; Rate 0.1250 kg/ha): 0.0 | herbicidal effect rating, SAGPY ([12]; Rate 0.2500 kg/ha): 0.0

CCCCC(=O)c1nsc2ccc(-n3c(=O)cc(C(F)(F)F)n(C)c3=O)cc12 [Example 431, 2,4(1H,3H)-Pyrimidinedione, 1-methyl-6-(trifluoromethyl)-3-(3-valeryl-1,2-benzisothiazol-5-yl)-]
ECHORC ([1]; 0.0320 kg/ha): 8.0 | ECHORC ([1]; 0.0620 kg/ha): 9.0 | ECHORC ([1]; 0.1250 kg/ha): 8.5 | ECHORC ([1]; 0.2500 kg/ha): 9.0 | SAGPY ([2]; 0.0320 kg/ha): 3.5 | SAGPY ([2]; 0.0620 kg/ha): 5.5 | SAGPY ([2]; 0.1250 kg/ha): 7.5 | SAGPY ([2]; 0.2500 kg/ha): 9.0 | MOOVA ([3]; 0.0320 kg/ha): 9.0 | MOOVA ([3]; 0.0620 kg/ha): 9.0 | MOOVA ([3]; 0.1250 kg/ha): 9.0 | MOOVA ([3]; 0.2500 kg/ha): 9.0 | herbicidal effect rating, ECHORC ([4]; Rate 0.0320 kg/ha): 7.0 | herbicidal effect rating, ECHORC ([4]; Rate 0.0620 kg/ha): 9.0 | herbicidal effect rating, ECHORC ([4]; Rate 0.1250 kg/ha): 9.0 | herbicidal effect rating, ECHORC ([4]; Rate 0.2500 kg/ha): 9.0 | herbicidal effect rating, MOOVA ([5]; Rate 0.0320 kg/ha): 6.0 | herbicidal effect rating, MOOVA ([5]; Rate 0.0620 kg/ha): 9.0 | herbicidal effect rating, MOOVA ([5]; Rate 0.1250 kg/ha): 9.0 | herbicidal effect rating, MOOVA ([5]; Rate 0.2500 kg/ha): 9.0 | herbicidal effect rating, ORYSAT (rice tolerance) ([6]; Rate 0.0320 kg/ha): 3.0 | herbicidal effect rating, ORYSAT (rice tolerance) ([6]; Rate 0.0620 kg/ha): 3.0 | herbicidal effect rating, ORYSAT (rice tolerance) ([6]; Rate 0.1250 kg/ha): 3.0 | herbicidal effect rating, ORYSAT (rice tolerance) ([6]; Rate 0.2500 kg/ha): 7.0 | herbicidal effect rating, CYPSE ([7]; Rate 0.0320 kg/ha): 0.0 | herbicidal effect rating, CYPSE ([7]; Rate 0.0620 kg/ha): 0.0 | herbicidal effect rating, CYPSE ([7]; Rate 0.1250 kg/ha): 0.0 | herbicidal effect rating, CYPSE ([7]; Rate 0.2500 kg/ha): 4.0 | herbicidal effect rating, CYPIR ([8]; Rate 0.0320 kg/ha): 4.0 | herbicidal effect rating, CYPIR ([8]; Rate 0.0620 kg/ha): 7.0 | herbicidal effect rating, CYPIR ([8]; Rate 0.1250 kg/ha): 9.0 | herbicidal effect rating, CYPIR ([8]; Rate 0.2500 kg/ha): 9.0 | CYPIR ([9]; 0.0320 kg/ha): 8.0 | CYPIR ([9]; 0.0620 kg/ha): 9.0 | CYPIR ([9]; 0.1250 kg/ha): 9.0 | CYPIR ([9]; 0.2500 kg/ha): 9.0 | ORYSAT ([10]; 0.0320 kg/ha): 3.5 | ORYSAT ([10]; 0.0620 kg/ha): 5.5 | ORYSAT ([10]; 0.1250 kg/ha): 5.0 | ORYSAT ([10]; 0.2500 kg/ha): 6.5 | CYPSE ([11]; 0.0320 kg/ha): 0.0 | CYPSE ([11]; 0.0620 kg/ha): 4.0 | CYPSE ([11]; 0.1250 kg/ha): 7.5 | CYPSE ([11]; 0.2500 kg/ha): 9.0 | herbicidal effect rating, SAGPY ([12]; Rate 0.0320 kg/ha): 0.0 | herbicidal effect rating, SAGPY ([12]; Rate 0.0620 kg/ha): 0.0 | herbicidal effect rating, SAGPY ([12]; Rate 0.1250 kg/ha): 0.0 | herbicidal effect rating, SAGPY ([12]; Rate 0.2500 kg/ha): 4.0

Cn1c(C(F)(F)F)cc(=O)n(-c2ccc3snc(C(=O)C(C)(C)C)c3c2)c1=O [Example 432, 2,4(1H,3H)-Pyrimidinedione, 1-methyl-3-(3-pivaloyl-1,2-benzisothiazol-5-yl)-6-(trifluoromethyl)-]
ECHORC ([1]; 0.0320 kg/ha): 9.0 | ECHORC ([1]; 0.0620 kg/ha): 9.0 | ECHORC ([1]; 0.1250 kg/ha): 9.0 | ECHORC ([1]; 0.2500 kg/ha): 9.0 | SAGPY ([2]; 0.0320 kg/ha): 0.0 | SAGPY ([2]; 0.0620 kg/ha): 3.5 | SAGPY ([2]; 0.1250 kg/ha): 7.5 | SAGPY ([2]; 0.2500 kg/ha): 8.5 | MOOVA ([3]; 0.0320 kg/ha): 9.0 | MOOVA ([3]; 0.0620 kg/ha): 9.0 | MOOVA ([3]; 0.1250 kg/ha): 9.0 | MOOVA ([3]; 0.2500 kg/ha): 9.0 | herbicidal effect rating, ECHORC ([4]; Rate 0.0320 kg/ha): 9.0 | herbicidal effect rating, ECHORC ([4]; Rate 0.0620 kg/ha): 9.0 | herbicidal effect rating, ECHORC ([4]; Rate 0.1250 kg/ha): 9.0 | herbicidal effect rating, ECHORC ([4]; Rate 0.2500 kg/ha): 9.0 | herbicidal effect rating, MOOVA ([5]; Rate 0.0320 kg/ha): 9.0 | herbicidal effect rating, MOOVA ([5]; Rate 0.0620 kg/ha): 9.0 | herbicidal effect rating, MOOVA ([5]; Rate 0.1250 kg/ha): 9.0 | herbicidal effect rating, MOOVA ([5]; Rate 0.2500 kg/ha): 9.0 | herbicidal effect rating, ORYSAT (rice tolerance) ([6]; Rate 0.0320 kg/ha): 4.0 | herbicidal effect rating, ORYSAT (rice tolerance) ([6]; Rate 0.0620 kg/ha): 4.0 | herbicidal effect rating, ORYSAT (rice tolerance) ([6]; Rate 0.1250 kg/ha): 7.0 | herbicidal effect rating, ORYSAT (rice tolerance) ([6]; Rate 0.2500 kg/ha): 7.0 | herbicidal effect rating, CYPSE ([7]; Rate 0.0320 kg/ha): 0.0 | herbicidal effect rating, CYPSE ([7]; Rate 0.0620 kg/ha): 4.0 | herbicidal effect rating, CYPSE ([7]; Rate 0.1250 kg/ha): 7.0 | herbicidal effect rating, CYPSE ([7]; Rate 0.2500 kg/ha): 9.0 | herbicidal effect rating, CYPIR ([8]; Rate 0.0320 kg/ha): 8.0 | herbicidal effect rating, CYPIR ([8]; Rate 0.0620 kg/ha): 8.0 | herbicidal effect rating, CYPIR ([8]; Rate 0.1250 kg/ha): 9.0 | herbicidal effect rating, CYPIR ([8]; Rate 0.2500 kg/ha): 9.0 | CYPIR ([9]; 0.0320 kg/ha): 8.0 | CYPIR ([9]; 0.0620 kg/ha): 9.0 | CYPIR ([9]; 0.1250 kg/ha): 9.0 | CYPIR ([9]; 0.2500 kg/ha): 9.0 | ORYSAT ([10]; 0.0320 kg/ha): 6.0 | ORYSAT ([10]; 0.0620 kg/ha): 6.0 | ORYSAT ([10]; 0.1250 kg/ha): 6.5 | ORYSAT ([10]; 0.2500 kg/ha): 7.5 | CYPSE ([11]; 0.0320 kg/ha): 0.0 | CYPSE ([11]; 0.0620 kg/ha): 3.5 | CYPSE ([11]; 0.1250 kg/ha): 6.5 | CYPSE ([11]; 0.2500 kg/ha): 9.0 | herbicidal effect rating, SAGPY ([12]; Rate 0.0320 kg/ha): 0.0 | herbicidal effect rating, SAGPY ([12]; Rate 0.0620 kg/ha): 0.0 | herbicidal effect rating, SAGPY ([12]; Rate 0.1250 kg/ha): 2.0 | herbicidal effect rating, SAGPY ([12]; Rate 0.2500 kg/ha): 4.0

Source: patent EP0908457B1, “3-(1,2-benzisothiazol- and isoxazol-5-Y1)-2,4(1H,3H)-pyrimidinedione or thione and 3-(1,2-benzisothiazol- and isoxazol-5-y1)-4(3H)-pyrimidinone or thione herbicidal agents” (BASF AKTIENGESELLSCHAFT, priority 1997, dated 1999)
